{"source": "patent US9816075B2", "about": "“Compounds with modifying activity enhanced under hypoxic conditions” (Board of Regents, The University of Texas System, priority 2005, dated 2017)", "key": {"[1]": {"experiment": "Animal toxicity screen / MTD by intraperitoneal injection", "conditions": "for MTD: intraperitoneal, mice, a = maximum dose due to poor solubility, b = acutely toxic with a single animal at 0.2 mg in 200 μL (about 6.0 mg/kg); for survival in toxicity screen: 0.2 mg in 200 μL 10 mM Tris buffer pH 7.5, intraperitoneal", "quoted_text": "Animal toxicity screens were performed by intraperitoneal injection of suitable compounds in C57BL/6NTac mice (each with an approximate weight of 30 g). For each animal, 0.2 mg of each compound in 200 μL 10 mM Tris buffer, pH 7.5 was used. […] These were further examined by injecting at least three mice with 200 μL of a freshly prepared aqueous solution of each compound at concentrations of 0.5 mg/mL, 2 mg/mL, 5 mg/mL, 10 mg/mL, 25 mg/mL and 50 mg/mL to determine MTD values."}, "[2]": {"system": "H358, a bronchioalveolar non-small cell lung cancer cell line", "experiment": "MTT drug sensitivity assay", "type": "cell-based", "conditions": "96 hours incubation; concentration that reduced formazan formation by 50%", "method": "For cytotoxicity of suitable compounds a standard MTT drug sensitivity assay was performed on cancer cells, including H358, a bronchioalveolar non-small cell lung cancer cell line. Cell density in an aliquot of cells growing in log phase was determined by counting trypan blue excluding cells in a hemocytometer and 20,000 cells were plated into each well of 96-well flat-bottomed microliter plates."}, "supercoiled pUC18 DNA": {"system": "supercoiled pUC18 DNA", "experiment": "Modification (strand breaks) of supercoiled plasmid DNA, gel electrophoresis", "type": "biochemical", "conditions": "12.8 μM, anaerobic, about one hour", "method": "Referring now to FIG. 6, supercoiled DNA (0.154 mM base pairs) was modified by a diastereomeric mixture of the P^4+ complex in the presence and absence of a reducing agent. Lane M was the marker lane. Lane 1 was a DNA control without a reducing agent. Lane 2 included DNA without P^4+ under aerobic conditions (e.g., in the presence of oxygen or O2) with GSH, Lane 2′ included DNA with GSH (0.513 mM) without P^4+ under anaerobic conditions (e.g., hypoxia). Lanes 3, 4 and 5 were representative of modifications under aerobic (O2) conditions and lanes 2′, 3′, 4′ and 5′ were representative of modifications under anaerobic (hypoxia or absent O2) conditions. […]\nModification reactions were carried out in 0.5 mL Eppendorf tubes with 2 μL of a supercoiled pUC18 DNA (1 μg/1 μL) in a total volume of 20 μL using a 5 mM sodium phosphate buffer (pH 7). […] DNA was then dried for about 30 minutes and resuspended in about 40 μL of a storage buffer (e.g., 40 mM Tris-Cl, 1 mM EDTA at pH 8.0) with 65 μL of deionized water and 12 μL of a loading buffer (e.g., 30% glycerol in water with 0.1% w/v bromophenol blue), Each reaction was then evaluated by standard gel electrophoresis methods (e.g., loaded on 1% agarose gel stained with ethidium bromide and electrophoresed at about 80 volts for about 90 minutes using a Tris-acetate-EDTA buffer at pH 8.0). […]"}, "[3]": {"experiment": "Cyclic voltammetry / reduction potentials", "type": "physicochemical", "conditions": "cyclic voltammetry in aqueous solution, versus normal hydrogen electrode", "description": "This is depicted in FIG. 4 in which compounds having a tatpp or tatpq bridging ligand are provided as examples. Preferred bridging ligands have modest potentials in order for them to be accessible in a cellular milieu. […] For TJ-7p of FIG. 2, a compound in which tatpq is the bridging ligand, the first two reductions were at 70 mV and −80 mV versus the normal hydrogen electrode. These potentials are modest and easily accessible in a cellular milieu.\nThe reduction potential for compounds is such that these compounds are accessible to one or more reducing agents, especially in biologic conditions. For example, the bridging ligand, tatpp, when bound by two ruthenium ions in P^4+, has a reduction potential […] of about −0.22 V versus Ag/AgCl in acetonitrile. An alternate charged form of P^4+, P^3+, has an E1/2 of about −0.71 V versus Ag/AgCl in acetonitrile. These E1/2 values of the complexes make them accessible to one or more suitable reducing agents in biologic conditions."}, "calf thymus Topo I": {"system": "calf thymus Topo I", "experiment": "Topoisomerase I relaxation of supercoiled DNA", "type": "biochemical", "conditions": "0.62-3.08 μM", "method": "FIGS. 19 and 20 illustrate the ability of suitable compounds to modify Topo I and Topo II. […] For FIG. 19, lane M was the marker lane containing forms I, II and III of a DNA. For all other lanes, the DNA was supercoiled pUC18 at 30.8 μM per reaction. Lane 1 was, the DNA used was pUC18 at 30.8 μM base pairs per reaction, without compound or inhibitor. Lane 2 was DNA with Tope I and no compound. Lane 3 was DNA with inhibitor, CPT. Lane 4-6 included varying concentrations of P^4+ (3.08 μM, 1.54 μM and 0.62 μM, respectively). Lane 7-9 included varying concentrations of Q^4+ (3.08 μM, 1.54 μM and 0.62 μM, respectively).\nReaction conditions for FIGS. 19 and 20 included the addition of DNA and 5 units of calf thymus Topo I in the presence or absence of either a known inhibitor (CPT), P^4+ or Q^4+. Both P^4+ and Q^4+ were examined at varying concentrations, 0.62 μM-3.08 μM. Samples were incubated at 37 degrees Centigrade in an assay buffer (e.g., 10 mM Tri-HCl at pH 7.9, 150 mM NaCl, 1 mM EDTA, 0.1% BSA, 0.1 mM spermidine, and 5% glycerol) for about 30 minutes to allow for appropriate cleavage and religation. Relaxed intermediates were then trapped by adding 5 μL of a stopping buffer (e.g., 5% SDS, 0.05% bromophenol blue and 30% glycerol). […]"}, "Topo II": {"system": "Topo II", "experiment": "Topoisomerase II activity on supercoiled DNA", "type": "biochemical", "conditions": "0.46-2.31 μM", "method": "As shown, M was the marker lane containing forms I, II and III of a DNA. For all other lanes, the DNA was supercoiled pUC18 at 30.8 μM base pairs per reaction. Lane 1 was DNA without compound or inhibitor. Lane 2 was DNA with Topo H and no compound. Lane 3 was DNA with inhibitor, m-AMSA. Lanes 4-6 included varying concentrations of P^4+ (2.31 μM, 1.15 μM and 0.46 μM, respectively). Lanes 7-9 included varying concentrations of Q^4+ (2.31 μM, 1.15 μM and 0.46 μM, respectively).\nFor conditions using Topo II, reactions were generally performed as described for Topo I, except that 23.1 μM of DNA was used per reaction along with either the inhibitor (m-AMSA) or varying concentrations of P^4+ or Q^4+ (0.46 to 2.31 μM) in a total volume of 20 μL. The assay buffer was altered for improved Topo II activity (using 10 mM Tris-HCl at pH 7.9, 50 mM NaCl, 50 mM KCl, 5 mM MgCl2, 0.1 mM EDTA, 0.15 mg mL BSA, and 1 mM ATP) as was the running buffer (using 100 mM Tris-borate, pH 8.3, 2 mM BDTA)."}}, "note": "Marks after values point to notes of the source that are not given here."}
{"substance": "[Ru2(bpy)2(tpphz)(CH3CN)4]^4+", "values": [{"measurement": "MTD", "setting": "[1]", "value": "<6^b mg/kg"}, {"measurement": "IC50", "setting": "[2]", "value": "21 ± 2", "unit": "µM"}]}
{"substance": "Iron(II)-Bleomycin [Fe-BLM]", "values": [{"measurement": "DNA modification in the absence of oxygen, FIG. 7", "setting": "supercoiled pUC18 DNA", "value": "unable to modify or break DNA in the absence of oxygen"}]}
{"substance": "[Ru2(bpy)2(tpphz)(C2O4)2]", "values": [{"measurement": "MTD", "setting": "[1]", "value": ">15^a mg/kg"}, {"measurement": "IC50", "setting": "[2]", "value": "100 ± 10", "unit": "µM"}]}
{"substance": "[Ru2(bpy)2(tpphz)(CO)4]^4+", "values": [{"measurement": "MTD", "setting": "[1]", "value": ">6^a mg/kg"}]}
{"substance": "[Ru2(bpy)2(tpphz)(CO)2(Cl)2]^4+", "values": [{"measurement": "MTD", "setting": "[1]", "value": "<6^b mg/kg"}, {"measurement": "IC50", "setting": "[2]", "value": "8 ± 1", "unit": "µM"}]}
{"substance": "[Ru2(phen)4tatpq]^4+ [[Ru2(phen)4(tatpq)]^4+]", "values": [{"measurement": "first reduction potential", "setting": "[3]", "value": 70, "unit": "mV"}, {"measurement": "second reduction potential", "setting": "[3]", "value": "−80", "unit": "mV"}, {"measurement": "Topo I inhibition compared with camptothecin (CPT)", "setting": "calf thymus Topo I", "value": "better than that of the known inhibitor, camptothecin"}, {"measurement": "Topo I inhibition, FIG. 19", "setting": "calf thymus Topo I; 37 degrees Centigrade, about 30 minutes", "value": "inhibited Topo I and its relaxation of supercoiled DNA"}, {"measurement": "survival in toxicity screen", "setting": "[1]", "value": "survived"}, {"measurement": "Topo II inhibition compared with amsacrine (m-AMSA)", "setting": "Topo II", "value": "better than that of the known inhibitor, amsacrine"}, {"measurement": "Topo II inhibition, FIG. 20", "setting": "Topo II", "value": "inhibited Topo II and its activity on supercoiled DNA"}, {"measurement": "IC50", "setting": "[2]", "value": "1 ± 0.1", "unit": "µM"}]}
{"substance": "[Ru2(phen)4tatpp]^4+ [[Ru2(phen)4(tatpp)]^4+]", "values": [{"measurement": "first reduction potential", "setting": "[3]", "value": 170, "unit": "mV"}, {"measurement": "second reduction potential", "setting": "[3]", "value": "−180", "unit": "mV"}, {"measurement": "survival in toxicity screen", "setting": "[1]", "value": "survived"}, {"measurement": "IC50", "setting": "[2]", "value": "8 ± 1", "unit": "µM"}]}
